Target: T1, Endothelial lipase (Homo sapiens, UniProt Q9Y5X9)
T1 sequence (Q9Y5X9 whole entry): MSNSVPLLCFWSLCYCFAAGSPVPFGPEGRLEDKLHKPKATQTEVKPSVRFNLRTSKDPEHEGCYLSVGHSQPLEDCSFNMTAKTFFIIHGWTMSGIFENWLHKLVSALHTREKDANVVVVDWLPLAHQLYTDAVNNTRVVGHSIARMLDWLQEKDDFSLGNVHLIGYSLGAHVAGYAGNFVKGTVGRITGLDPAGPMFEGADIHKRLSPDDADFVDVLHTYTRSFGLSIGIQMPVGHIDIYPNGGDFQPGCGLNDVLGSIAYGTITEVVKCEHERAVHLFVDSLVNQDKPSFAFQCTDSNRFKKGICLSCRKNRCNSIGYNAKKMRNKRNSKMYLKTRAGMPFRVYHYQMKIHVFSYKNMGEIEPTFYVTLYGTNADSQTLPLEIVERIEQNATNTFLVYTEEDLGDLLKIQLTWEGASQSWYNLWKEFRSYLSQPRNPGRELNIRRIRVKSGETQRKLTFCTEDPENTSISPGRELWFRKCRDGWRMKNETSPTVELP
Experiment: Enzyme Assay: For characterization of the enzymatic activity of endothelial lipase and the effect of inhibitors, the phospholipase-specific substrate 1,2-bis(4,4-difluoro-5,7-dimethyl-4-bora-3a,4a-diaza-s-indacene-3-undecanoyl)-sn-glycero-3-phosphocholine (manufacturer: Molecular Probes) was used. Hydrolysis of the A1 ester bond of this phospholipid by the enzyme releases the fluorescent dye Bodipy, which can be detected by measuring the fluorescence after separation by thin-layer chromatography on an HPTLC plate (silica gel 60, Merck) or directly in the reaction vessel. To prepare the substrate solution, 100 ug of 1,2-bis(4,4-difluoro-5,7-dimethyl-4-bora-3a,4a-diaza-s-indacene-3-undecanoyl)-sn-glycero-3-phosphocholine (manufacturer: Molecular Probes) were dissolved in 100 ul of DMSO and taken up in 2.4 mg of tripalmitin (Sigma) in 393 ul of chloroform which contained 20 mg/ml DOPcholine (1,2-dioleoyl-sn-glycero-3-phosphocholine).

## O=C(NCc1ccccc1OC(F)F)n1sc2ncccc2c1=O
  IC50: 138 nM

— ChEMBL document CHEMBL3639022, “Azolopyridin-3-one derivatives as inhibitors of lipases and phospholipases” (2015)
